Results from patent publication EP2292587A1, “PHARMACEUTICAL COMPOSITION FOR INHIBITING THE TRANSCRIPTION FACTOR INDUCIBLE BY HYPOXIA, MODULATORS OF PATHOLOGICAL PROCESSES OF ANGIOGENESIS, ONCOGENESIS, INFLAMMATION, APOPTOSIS, AND CELLULAR THERAPY” (Fundacion De La Comunidad Valenciana Centro De …, priority 2008, dated 2009).
pIC50: −log10 of the molar value.

tested on: HIF; assay: luciferase cell assay based on the HIF response elements (HRE), HeLa 9XHRE-LUC; parameters: species or system human; conditions: Homo sapiens; cell assay based on the HIF response elements (Example 1), HeLa 9XHRE-LUC; read-out: IC50 HRE
Excerpt: In order to identify direct inhibitors of the activity of HIF, a stable recombinant line was first constructed from the cervical tumor line, known in scientific literature as HeLa, which contained the deoxyribonucleic acid (DNA) sequences of the region located between positions -985 and -951 of the human vascular endothelial growth factor (hVEGF), repeated nine times (9X) and fused to the luciferase reporter gene (LUC). This plasmid, provided by Dr. Manuel Ortiz de Landazuri from the Hospital de La Princesa of Madrid, called 9XHRE-LUC, was prepared using a commercial kit (Endofree Maxi-Prep; Qiagen, Inc., Valencia, CA). The transfections were performed with FuGene6 (Roche, cat.1814443) according to the manufacturer's instructions, the µg DNA: µg FuGene ratio was 1:3. The transfected cell lines were generated by cotransfection with the vector pCMV-Hygrom which expressed a hygromycin resistance gene in mammalian cells, allowing the selection of the transfected clones. After 48 hours, the growth medium was substituted with fresh medium containing 100 µg/ml hygromycin (Sigma), the clones resistant to the antibiotic were collected and analyzed by means of RT-PCR to select the clone with the desired construct. Routinely, the HeLa 9XHRE-LUC cell line was maintained in exponential growth by means of performing subcultures in DMEM (Invitrogen-Life Technologies, Inc., Carlsbad, CA), supplemented with 10% inactivated fetal bovine serum (Whittacker Bioproducts), penicillin (50 IU/ml), streptomycin (50 µg/ml) (Invitrogen-Life Technologies, Inc., Carlsbad, CA). The cells were cultured at 37°C with a humidified atmosphere containing 5% CO2 and 300 nM Desferoxamine (DFX; Sigma St. Louis, MO).
The compounds of the Collection of the CIPF, coming from a selection of commercial collections of Sigma-Aldrich, were solubilized in DMSO at a final concentration of 5 mM and preserved at -80°C. The concentration of these compounds in the luciferase assay was 1 mcM finally in the well of the multi-well plate in which the reaction was carried out. The luciferase assays were performed in white 96-well plates (Valtecknova ref. 3917), using the kit Bright-Glo™ Luciferase Assay System (Promega, Inc., Madison, WI) following the instructions supplied by the manufacturer.
According to the methodology of the cell assay based on the HIF response elements (Example 1), the intermediate compounds of the synthesis and several synthesized analogs were tested to obtain the SAR of FM19G11.

COC(=O)c1cccc(NC(=O)c2ccc([N+](=O)[O-])cc2[N+](=O)[O-])c1 [Compound 2, methyl 3-((2,4-dinitro)benzamido)benzoate] and O=C(O)c1cccc(NC(=O)c2ccc([N+](=O)[O-])cc2[N+](=O)[O-])c1 [Compound 3, 3-((2,4-dinitro)benzamido)benzoic acid] cannot be ordered by pIC50: under 6.00 for the first, under 6.00 for the second.

COC(=O)c1cccc(NC(=O)c2ccc(C(F)(F)F)cc2[N+](=O)[O-])c1 [Compound 5, methyl 3-(2-nitro-4-(trifluoromethyl)benzamido)benzoate] and O=C(O)c1cccc(NC(=O)c2ccc(C(F)(F)F)cc2[N+](=O)[O-])c1 [Compound 6, 3-(2-nitro-4-(trifluoromethyl)benzamido)benzoic acid] cannot be ordered by pIC50: under 6.00 for the first, under 6.00 for the second.

First: Cc1ccc(C(=O)COC(=O)c2cccc(NC(=O)c3ccc(C(F)(F)F)cc3[N+](=O)[O-])c2)cc1 [Compound 7, 2-oxo-2-(p-tolyl)ethyl 3-(2-nitro-4-(trifluoromethyl)benzamido)benzoate]
Second: Cc1ccc(C(=O)COC(=O)c2cccc(NC(=O)c3ccc([N+](=O)[O-])cc3C(F)(F)F)c2)cc1 [Compound 10, 2-oxo-2-(p-tolyl)ethyl 3-(4-nitro-2-(trifluoromethyl)benzamido)benzoate]
The pIC50 of the first is 0.23 log units higher: 7.08 for the first, 6.85 for the second. The first is the more potent here.

COC(=O)c1cccc(NC(=O)c2ccc([N+](=O)[O-])cc2C(F)(F)F)c1 [Compound 8, methyl 3-(4-nitro-2-(trifluoromethyl)benzamido)benzoate] and O=C(O)c1cccc(NC(=O)c2ccc([N+](=O)[O-])cc2C(F)(F)F)c1 [Compound 9, 3-(4-nitro-2-(trifluoromethyl)benzamido)benzoic acid] cannot be ordered by pIC50: under 6.00 for the first, under 6.00 for the second.

Compared with O=C(O)c1cccc(NC(=O)c2ccc(C(F)(F)F)cc2C(F)(F)F)c1 [Compound 12, 3-(2,4-bis-(trifluoromethyl)benzamido)benzoic acid], Cc1ccc(C(=O)COC(=O)c2cccc(NC(=O)c3ccc(C(F)(F)F)cc3C(F)(F)F)c2)cc1 [Compound 13, 2-oxo-2-(p-tolyl)ethyl 3-(2,4-bis(trifluoromethyl)benzamido)benzoate] is higher in pIC50: under 6.00 for the first, 6.52 for the second. The second is the more potent here.

Cc1ccc(C(=O)COC(=O)c2cccc(NC(=O)c3ccccc3)c2)cc1 [Compound 16, 2-oxo-2-(p-tolyl)ethyl 3-(benzamido)benzoate] and Cc1ccc(C(=O)COC(=O)c2cccc(NC(=O)c3ccccc3[N+](=O)[O-])c2)cc1 [Compound 25, 2-oxo-2-(p-tolyl)ethyl 3-(2-nitrobenzamido)benzoate] cannot be ordered by pIC50: under 6.00 for the first, 5.55 for the second.

O=C(COC(=O)c1cccc(NC(=O)c2ccc([N+](=O)[O-])cc2[N+](=O)[O-])c1)c1ccccc1 [Compound 19, 2-phenyl-2-oxoethyl 3-(2,4-(dinitro)benzamido)benzoate] and O=C(O)c1ccc(C(=O)COC(=O)c2cccc(NC(=O)c3ccc([N+](=O)[O-])cc3[N+](=O)[O-])c2)cc1 [Compound 29, 4-(2-(3-(2,4-dinitrobenzamido)benzoyloxy)-acetyl)benzoic acid] cannot be ordered by pIC50: under 6.00 for the first, 5.85 for the second.

Cc1ccc(C(=O)COC(=O)c2cccc(NC(=O)c3ccc([N+](=O)[O-])cc3)c2)cc1 [Compound 22, 2-oxo-2-(p-tolyl)ethyl 3-(4-nitrobenzamido)benzoate] and COC(=O)c1cccc(NC(=O)c2ccccc2[N+](=O)[O-])c1 [Compound 23, methyl 3-(2-nitrobenzamido)benzoate] cannot be ordered by pIC50: 5.60 for the first, under 6.00 for the second.

Compound O=C(O)c1cccc(NC(=O)c2ccccc2[N+](=O)[O-])c1 [Compound 24, 3-(2-nitrobenzamido)benzoic acid] has a pIC50 of 5.85.

same assay, conditions: cell assay based on the HIF response elements (Example 1), HeLa 9XHRE-LUC; read-out: IC50 HRE

Compared with O=C(COC(=O)c1cccc(NC(=O)c2ccc([N+](=O)[O-])cc2[N+](=O)[O-])c1)c1ccc(C(F)(F)F)cc1 [Compound 17, 2-oxo-2-(4-trifluoromethyl) ethyl 3-(2,4-(dinitro)benzamido)benzoate], O=C(COC(=O)c1cccc(NC(=O)c2ccc([N+](=O)[O-])cc2[N+](=O)[O-])c1)c1ccc(O)cc1 [Compound 26, 2-(4-hydroxyphenyl)-2-oxoethyl 3-(2,4-(dinitro)benzamido)benzoate] is 0.44 log units higher in pIC50: 6.00 for the first, 6.44 for the second.
